Measured values taken from US6727038B1, “Photodefineable compositions” (Dow Global Technologies Inc., priority 1995, dated 2004).

Assays:
Type in all cases: physicochemical
[1] = Solubility of bis azides in mesitylene and in DVS resin/mesitylene mixture; conditions: for Solubility In Mesitylene: in mesitylene at 25° C.; for Solubility In Mixture: mixture of 45 weight percent DVS resin in mesitylene at 10° C., weight percent based on total weight of mixture
Protocol: The solubility of various bis azides are determined in mesitylene at 25° C. and in a mixture of 45 weight percent DVS resin in mesitylene at 10° C. The results are shown in Table I. BAC-M is 2,6-bis(4-azidobenzylidene)-4-methylcyclohexanone and differs from the bis azide of the invention by having a methyl substituent on the cyclohexanone ring instead of ethyl. BAC-P is 2,6-bis(4-azidobenzylidene)-4-n-propyl cyclohexanone and differs from the bis azide of the invention by having an n-propyl substituent on the cyclohexanone ring instead of ethyl. The weight percent in the mixture is calculated based on the total weight of mixture.

[2] = Storage at -15° C., precipitate formation
Protocol: A formulation containing 3.6 weight percent BAC-E in a mixture of 45 weight percent DVS resin in mesitylene is stored for more than five months at −15° C. […] A formulation containing 4.05 weight percent BAC-E in a mixture of 45 weight percent DVS resin in mesitylene is stored at −15° C. A precipitate forms in three days. A formulation containing 2.0 weight percent BAC-M in a mixture of 45 weight percent DVS resin in mesitylene is stored at −15° C. A precipitate forms in less than ten days.

[3] = Speed of dissolution in DVS resin/mesitylene; conditions: shaken at room temperature
Protocol: BAC-E, up to four weight percent, is added to a mixture of 45 weight percent DVS resin in mesitylene and shaken at room temperature. The BAC-E dissolves in thirty minutes. BAC-M, at 2.0 weight percent is added to a mixture of 45 weight percent DVS resin in mesitylene and shaken at room temperature. The BAC-M requires more than eight hours of shaking to dissolve.

| Compound | Solubility In Mesitylene [1] [g/100 mL] | Solubility In Mixture [1] [Wt %] | time until a precipitate forms ([2]; 2.0 weight percent BAC-M in 45 weight percent DVS resin in mesitylene, stored at -15° C.) | time of shaking to dissolve ([3]; 2.0 weight percent in 45 weight percent DVS resin in mesitylene) | precipitate formation on storage ([2]; 3.6 weight percent BAC-E in 45 weight percent DVS resin in mesitylene, stored more than five months at -15° C.) | time to dissolve ([3]; up to four weight percent in 45 weight percent DVS resin in mesitylene) |
| --- | --- | --- | --- | --- | --- | --- |
| CCCC1CC(=Cc2ccc(N=[N+]=[N-])cc2)C(=O)C(=Cc2ccc(N=[N+]=[N-])cc2)C1 (stereo not shown) [BAC-P, 2,6-bis(4-azidobenzylidene)-4-n-propyl cyclohexanone] | 3.5 | 1.7 |  |  |  |  |
| CC1CC(=Cc2ccc(N=[N+]=[N-])cc2)C(=O)C(=Cc2ccc(N=[N+]=[N-])cc2)C1 (stereo not shown) [BAC-M, 2,6-bis(4-azidobenzylidene)-4-methylcyclohexanone] | 1.7 | 1.0 | less than ten | more than eight |  |  |
| CCC1C/C(=C\c2ccc(N=[N+]=[N-])cc2)C(=O)/C(=C/c2ccc(N=[N+]=[N-])cc2)C1 (stereo not shown) [BAC-E, 2,6-bis(4-azidobenzylidene)-4-ethylcyclohexanone] | 14 | 10.4 |  |  | No precipitate forms | thirty |
